Reference: PMC10394516, “The pharmacokinetic profile of brensocatib and its effect on pharmacodynamic biomarkers including NE, PR3, and CatG in various rodent species” (Frontiers in Pharmacology, 2023)
Where two headings read alike, the source gives them in different places.

Experiment: Plasma PK of brensocatib, BID vs QD oral dosing, C57BL/6 mice
Type: in vivo
Conditions: both sexes; for AUC(0-t): first 24 h
Method: A dose frequency study was performed in male and female mice (C57BL/6 & BALB/c) and in male and female rats (Sprague Dawley & Wistar) investigating twice daily (BID) versus once daily (QD) brensocatib administration.
Briefly, animals were weighed and randomized into different treatment groups. In total, three different dosing levels of brensocatib were tested in each species and strain; each QD dosing level was equivalent to 1.5-times the matching daily BID dose. For BID dosing, the second daily dose was administered 8-h post the morning dose. C57BL/6 mice were dosed either BID or QD for 7 consecutive days at 0/0, 0.5/0.75, 2/3, and 20/30 mg/kg/day (BID/QD). BALB/c mice were dosed for 7 consecutive days at 0/0, 0.2/0.3, 2/3, and 20/30 mg/kg/day (BID/QD). SD rats were dosed for 9 consecutive days at 0/0, 0.2/0.3, 2/3, and 20/30 mg/kg/day (BID/QD). Wistar rats were dosed for 7 consecutive days at 0/0, 0.2/0.3, 2/3, and 20/30 mg/kg/day (BID/QD).
For sparse PK analysis via LC-MS/MS, plasma was collected from animals during the first 24 h of dosing at prescribed timepoints. The timepoints included 1, 3, 8, and 24 h post initial dose for QD groups, and 1, 3, 8, 9, 11, and 24 h post initial dose for BID groups. Note that the 8- and 24-h plasma samples were prior to the afternoon dose for BID groups and prior to the second day dose for all groups, respectively. See section Quantification of Plasma Brensocatib Concentrations for details.
Blood was collected via the tail-vein technique and centrifuged to separate and collect the plasma. The resulting plasma samples were stored at −20°C or lower until LC-MS/MS analysis.
The plasma concentration of brensocatib was quantified by liquid chromatography, tandem mass spectrometry (LC-MS/MS), a Sciex API6500 mass spectrometer (SCIEX, Framingham, MA). Two brensocatib stock solutions were prepared, one for the preparation of the 8-point standard (STD) curve spiking solutions and the other for the preparation of the quantitative control spiking solutions (QCs) at three levels. The STD curve and QCs were prepared by 2% spiking from the spiking solutions into mouse or rat plasma. The samples were extracted using a protein precipitation method, where 10 µL of sample was mixed with 100 µL of internal standard working solution (100 ng/mL ^6C13-brensocatib in methanol), vortexed for 5 s, and centrifuged at 21,130 × g at 4°C for 15 min. The supernatant was mixed with an equal volume of water and 10 μL was injected into a Phenomenex Kinetex Biphenyl column (3.0 mm × 50 mm; 2.6 μm; 65°C; 0.8 mL/min) with an elution gradient consisting of mobile phase A (10 mM ammonium formate) and mobile phase B (methanol) over 2 min from 5% to 95% B. The mass spectrometer was equipped with an atmospheric-pressure chemical ionization source operating in positive mode.
Individual plasma concentrations were plotted and the area under the curve (AUC) was calculated using the trapezoid method. The elimination rate constant (k e ) was calculated as the negative natural log of the plasma concentration over time (Eq. 1) starting at the max concentration (C max) after the most recent dose to the last measurable plasma concentration between doses. The calculated k e was used to define the half-life (t 1/2 ) based on Eq. 2; where 0.693 is the natural log of 2 and assumes a first-order reaction. ke=−ln∆C/∆t (1) t1/2=0.693/ke (2)

half-life (C57BL/6, BALB/c, mouse, oral, mice (both strains), across BID and QD regimens, sparse PK, read-out: half-life (overall) (converted)): ~2.5 h | half-life (C57BL/6, mouse, po, 0.5 mg/kg/day, C57BL/6 mice, oral BID, 0.5 mg/kg/day, evening dose, read-out: t1/2, PM dose (converted)): 0.63 ± 0.01 h | half-life (C57BL/6, mouse, po, 0.5 mg/kg/day, C57BL/6 mice, oral BID, 0.5 mg/kg/day, morning dose, read-out: t1/2, AM dose (converted)): 0.71 ± 0.23 h | half-life (C57BL/6, mouse, po, 0.75 mg/kg/day, C57BL/6 mice, oral QD, 0.75 mg/kg/day, read-out: t1/2, AM dose (converted)): 9.62 ± 0.95 h | half-life (C57BL/6, mouse, po, 2 mg/kg/day, C57BL/6 mice, oral BID, 2 mg/kg/day, evening dose, read-out: t1/2, PM dose (converted)): 2.35 ± 0.35 h | half-life (C57BL/6, mouse, po, 2 mg/kg/day, C57BL/6 mice, oral BID, 2 mg/kg/day, morning dose, read-out: t1/2, AM dose (converted)): 2.07 ± 0.42 h | half-life (C57BL/6, mouse, po, 3 mg/kg/day, C57BL/6 mice, oral QD, 3 mg/kg/day, read-out: t1/2, AM dose (converted)): 6.38 ± 0.56 h | half-life (C57BL/6, mouse, po, 20 mg/kg/day, C57BL/6 mice, oral BID, 20 mg/kg/day, evening dose, read-out: t1/2, PM dose (converted)): 2.36 ± 0.05 h | half-life (C57BL/6, mouse, po, 20 mg/kg/day, C57BL/6 mice, oral BID, 20 mg/kg/day, morning dose, read-out: t1/2, AM dose (converted)): 2.41 ± 0.42 h | half-life (C57BL/6, mouse, po, 30 mg/kg/day, C57BL/6 mice, oral QD, 30 mg/kg/day, read-out: t1/2, AM dose (converted)): 3.01 ± 0.18 h | AUC(0-t) (mouse, C57BL/6 mice, oral BID, 0.5 mg/kg/day, read-out: AUC0–24h): 294 ± 49 ng·h/mL | AUC(0-t) (mouse, C57BL/6 mice, oral BID, 0.5 mg/kg/day, read-out: AUC(0–24)): 0.7 ± 0.12 µM·h | AUC(0-t) (mouse, C57BL/6 mice, oral BID, 2 mg/kg/day, read-out: AUC0–24h): 2010 ± 154 ng·h/mL | AUC(0-t) (mouse, C57BL/6 mice, oral BID, 2 mg/kg/day, read-out: AUC(0–24)): 4.79 ± 0.37 µM·h | AUC(0-t) (mouse, C57BL/6 mice, oral BID, 20 mg/kg/day, read-out: AUC0–24h): 15900 ng·h/mL | AUC(0-t) (mouse, C57BL/6 mice, oral BID, 20 mg/kg/day, read-out: AUC(0–24)): 37.7 ± 8.33 µM·h | AUC(0-t) (mouse, C57BL/6 mice, oral QD, 0.75 mg/kg/day, read-out: AUC0–24h): 735 ± 108 ng·h/mL | AUC(0-t) (mouse, C57BL/6 mice, oral QD, 0.75 mg/kg/day, read-out: AUC(0–24)): 1.75 ± 0.26 µM·h | AUC(0-t) (mouse, C57BL/6 mice, oral QD, 3 mg/kg/day, read-out: AUC0–24h): 2840 ± 302 ng·h/mL | AUC(0-t) (mouse, C57BL/6 mice, oral QD, 3 mg/kg/day, read-out: AUC(0–24)): 6.76 ± 0.72 µM·h | AUC(0-t) (mouse, C57BL/6 mice, oral QD, 30 mg/kg/day, read-out: AUC0–24h): 52600 ng·h/mL | AUC(0-t) (mouse, C57BL/6 mice, oral QD, 30 mg/kg/day, read-out: AUC(0–24)): 125 ± 16 µM·h
Compound: Cn1c(=O)oc2ccc(-c3ccc(C[C@@H](C#N)NC(=O)[C@@H]4CNCCCO4)cc3)cc21 [brensocatib]
